Reference: patent EP0114908A1, “Finely pulverized 2,4-diamino-6-(2,5-dichlorophenyl)-1,3,5-triazine and pharmaceutically acceptable acid addition salts thereof” (NIPPON SHINYAKU COMPANY, LIMITED, priority 1983, dated 1984)
Several values for one entry are separate records, joined by “and”; a condition that tells them apart may be missing. Identical values can stand only once. Like-named read-outs stand apart in the source and are kept apart here.

What was measured:
Assay type in all cases: in vivo
[1] = tested on: ulcer formation induced by stress; assay: stress ulcer in rats, immobilization-water immersion method; conditions: for Inhibition Rate / ED50: stress ulcer; for ED50: per os; for activity on ulcer formation induced by stress: orally
From the text: Since 50 microns is a common particle diameter in pharmaceutical preparations, it was most surprising that such significant and important advantages accrued according to the present invention. Inhibition activity against stress ulcer in rats of the compound and pharmaceutically acceptable acid additio salts in the finely pulverized form of the present invention are set forth in Table 2.

[2] = body weight increase inhibition on chronic oral administration; conditions: rats; compared with a maleate salt having an average particle diameter of about 50 microns
Description: A further advantage results from body weight increase inhibition which is one of the main side effects of the compound and salts of the present invention. When 10 mg/kg or more per day of either the compound or maleate salt is chronically administered to rats orally, body weight increase is inhibited. This is a side effect of triazines of this type. […] However, when the compound or a pharmaceutically acceptable acid addition salt thereof according to the present invention having an average particle diameter of about 8 microns was administered, the appearance of the side effect was only transient and moderate and the recovery of body weight was far faster as compared to that occurring when the compound was administered having an average particle diameter of about 50 microns.
The average particle sizes were 8 microns for the compound according to the present invention as compared to the same compound having an average particle diameter of 50 microns.

male rats = assay: toxicity on intraperitoneal injection (LD50); conditions: for LD50: injected intraperitoneally, male rats, limits given in brackets
From the text: This decrease in toxicity is totally unexpected and represents a significant and important advance in the art.

Row | Structure (SMILES) | Inhibition Rate ([1]; 0.3 mg/kg) [%] | Inhibition Rate ([1]; 1.0 mg/kg) [%] | Inhibition Rate ([1]; 3.0 mg/kg) [%] | Inhibition Rate ([1]; 10 mg/kg) [%] | ED50 ([1]; determined from the data of Table 2) [mg/kg] | improvement in body weight side effect [2] | LD50 (male rats; listed as the maleate salt according to the present invention) [mg/kg] | ED50 ([1]; Rattus norvegicus, po, determined from the data of Table 2, read-out: ED50) [mg/kg] | activity on ulcer formation induced by stress ([1]; dosage of 1 mg/kg) | Inhibition Rate ([1]; 30 mg/kg) [%] | rats killed (male rats; intraperitoneal injection, dosages up to 3000 mg/kg) | activity on ulcer formation induced by stress ([1]; dosage of 5 mg/kg) | Inhibition Rate ([1]; 0.37 mg/kg per os, three values, 0.37 mg/kg) | Inhibition Rate ([1]; 3.72 mg/kg per os, three values, 3.72 mg/kg) | LD50 (male rats) [mg/kg] | LD50 (male rats; listed as the same compound having an average particle diameter of about 50 microns) [mg/kg]
1 | Nc1nc(N)nc(-c2cc(Cl)ccc2Cl)n1 [Substance (II), 2,4-diamino-6-(2,5-dichlorophenyl)-1,3,5-triazine] | 35 | 51 | 70 | 85 | 0.90 | particularly dramatic | 835 | – | – | – | – | – | – | – | – | –
2 | Nc1nc(N)nc(-c2cc(Cl)ccc2Cl)n1 [Substance (I), 2,4-diamino-6-(2,5-dichlorophenyl)-1,3,5-triazine] | 33 | 45 | 63 | 70 | – | – | – | 1.22 | effective | 85 | no rats were killed | – | – | – | – | –
3 | Nc1nc(N)nc(-c2cc(Cl)ccc2Cl)n1 [2,4-diamino-6-(2,5-dichlorophenyl)-1,3,5-triazine] | – | – | – | – | – | – | – | – | – | – | – | ineffective | 37% and 46% and 29% | 62% and 47% and 33% | 495 | 1740
